Experimental data reported in patent US4867737A, “Derivatives of 4-phenyl-4-oxo-2-butenoic acid their preparation process, their use as medicaments and compositions containing them” (Roussel UCLAF, priority 1986, dated 1989).

Assays:
[1] = system: total acidity of the gastric secretions; test: Anti-gastric secretory activity (pylorus ligature, Shay technique); format: in vivo, rat; conditions: male rats, intraduodenal, 10 mg/kg, 3 hours
Method: (1) Determination of the anti-gastric secretory activity.
The technique used is described by H. SHAY et al in Gastroenterology 5, 43, 1945.
Male rats are used weighing about 200 g (10 animals per group), deprived of nourishment for 48 hours, but having as much as desired of an 8% glucose solution. The pylorus of the rats is ligatured, the rats having been lightly anesthetized with ether. Then, at the end of the operation, the compounds under test are administered at various doses, or for the control animals, a 0.5% carboxymethyl cellulose solution is administered by intraduodenal route. Then the abdominal incision is sutured.
Three hours later, the animals are killed and their stomachs are removed after ligature of the oesophagus. The gastric juice is removed and centrifuged. Then the volume is measured; and on 100 μl of gastric juice, the total acidity is determined by titration at pH 7 with N/10 sodium hydroxide.
The percentages of variation of total acidity of the gastric secretions are calculated in relation to the results obtained with the control animals.

[2] = Acute toxicity (LD50), oral route; conditions: in vivo, mouse
Method: (3) Determination of actute toxicity
The lethal dose 50 (LD50) was evaluated after administration of the products by oral route to a mouse.

[3] = system: ulcers in the stomachs of the rats; test: Anti-ulcer activity, ulcer from stress (constraint and cold); format: in vivo, rat; conditions: female rats, by probang, 10 mg/kg
Method: (2) Determination of anti-ulcer activity
The technique consists of inducing ulcers in the stomachs of the rats through stress (constraint and cold.)
The technique used is described by E. C. SENAY and R. J. LEVINE, Proc. Soc. Exp. Biol. 124, 1221 (1967).
Female rats weighing 150 g are used (5 animals per group), starved for 48 hours with water "ad libitum" and glucose solution for 8 hours. The animals receive the product under test by a probang, or the control animals receive a 0.5% carboxymethyl cellulose solution.
Two hours later, the animals are wrapped up in a wire-netting jacket, their paws are bound and the whole is placed in a refrigerator at 8° C. for two hours. The rats are freed and killed with ether.
Their stomachs are removed, opened along the greater curvature and examined by means of a binocular magnifier; the seriousness of the lesions is rated from 0 to 3 for each stomach.
For each group of rats the average intensity of the ulcerations is calculated, then for each group the degree of ulceration in relation to the controls is determined.
Product 1 is the product of Example 1; Product p is the product of Example 1 of U.S. Pat. No. 4,473,583.

SMILES	Anti-secretory activity: Acid Concentration (% variation in relation to the controls) [1]	LD50 [2]	Anti-ulcer activity: Ulceration (% variation in relation to the controls) [3]
COc1ccccc1C(=O)/C=C/C(=O)O [Product 1, (E) 4-(2-methoxyphenyl)-4-oxo-2-butenoic acid]	-78%	370 mg/kg	-80%
O=C(O)C=CC(=O)c1ccccc1 [p]	-66%	250 mg/kg	-54%
